# Test system: Fao liver cells
# Test: ER stress inducers and insulin action in Fao liver cells
# Format: cell-based, rat
# Experimental: (A) ER stress was induced in Fao liver cells by a 3-hour treatment with 5 μg/ml tunicamycin (Tun). Cells were subsequently stimulated with insulin (Ins). IRS-1 tyrosine and serine (Ser307) phosphorylation, Akt phosphorylation (Ser473), insulin receptor (IR) tyrosine phosphorylation, and their total protein levels were examined using either immunoprecipitation (IP) followed by immunoblotting (IB) or direct immunoblotting. (B) Quantitation of IRS-1 (tyrosine and Ser307), Akt (Ser473), and IR (tyrosine) phosphorylation under the experimental conditions described in (A) with normalization to protein levels for each molecule. (C) Inhibition of ER stress-induced (300 nM thapsigargin for 4 hours) Ser307 phosphorylation of IRS-1 by JNK-1 inhibitor, SP600125 (JNKi, 25 μM), (D) Quantitation of IRS-1 Ser307 phosphorylation under conditions described in (C). (E) Reversal of ER stress-induced inhibition of insulin-stimulated tyrosine phosphorylation (pY) of IRS-1 by a JNK inhibitor. (F) Quantitation of insulin-induced IRS-1 tyrosine phosphorylation levels described in (E). (G) JNK activity, Ser307 phosphorylation of IRS-1, and total IRS-1 levels at indicated times following tunicamycin treatment (Tun, 10 μg/ml for 1 hour) in IRE-1α^+/+ and IRE-1α^−/− fibroblasts. (H) Insulin-stimulated IRS-1 tyrosine phosphorylation and total IRS-1 levels following tunicamycin treatment (Tun, 10 μg/ml for 1 hour) in IRE-1α^+/+ and IRE-1α^−/− fibroblasts. […] All graphs show mean±SEM from at least 2 independent experiments and statistical significance from the controls is indicated by * with p<0.005.
# (A) ER stress was induced in Fao cells by 1 hour treatment with 300 nM thapsigargin (Thap), and cells were subsequently stimulated with insulin (Ins). IRS-1 tyrosine phosphorylation (pY) and serine phosphorylation (pSer307), insulin receptor (IR) tyrosine phosphorylation, and total protein levels were examined using either immunoprecipitation (IP) followed by immunoblotting (IB) or direct immunoblotting. (B) Fao cells were treated with sulindac sulfide (SS: 0, 7.5, 30, and 60 μM) for 45 minutes with or without an additional hour of exposure to 300 nM thapsigargin (Thap). IRS-1 serine phosphorylation and total IRS-1 protein levels were examined as described above.
# To investigate whether ER stress interferes with insulin action, we pretreated Fao liver cells with tunicamycin and thapsigargin, agents commonly used to induce ER stress. […] IRS-1 is a substrate for insulin receptor tyrosine kinase and serine phosphorylation of IRS-1, particularly mediated by JNK, reduces insulin receptor signaling (Hirosumi et al., Nature 420:333 (2002); incorporated herein by reference).
# Cells: Rat Fao liver cells were cultured with RPMI 1640 (Gibco, Grand Island, N.Y.) containing 10% fetal bovine serum (FBS). […]
# [1] = Fao cells pretreated with the agent
substance,measurement,setting,value
tunicamycin,insulin-induced Akt phosphorylation,[1],suppressed
same,serine phosphorylation of IRS-1,[1],significant increase
same,insulin-stimulated tyrosine phosphorylation of IRS-1,Fao liver cells pretreated with the agent,significantly decreased

# Reference: patent US20100075894A1, “REDUCING ER STRESS IN THE TREATMENT OF OBESITY AND DIABETES” (HARVARD UNIVERSITY, priority 2004, published 2010)
